Reference: US20260146035A1, “FUSED BICYCLIC COMPOUNDS AND THEIR USE AS MER AND AXL INHIBITORS” (DONG-A ST CO., LTD., priority 2022, published 2026)

What was measured:
human MER (528-end) = target: T1, human MER (528-end) (Homo sapiens, UniProt Q12866); test: HTRF kinase activity biochemical assay, MER; conditions: 10 μM ATP, 30 minutes pre-incubation; read-out: HTRF MERTK IC50
T1 construct: human MER (528-end); purchased Camnabio, Japan
T1 sequence (Q12866 528-999 limits assumed): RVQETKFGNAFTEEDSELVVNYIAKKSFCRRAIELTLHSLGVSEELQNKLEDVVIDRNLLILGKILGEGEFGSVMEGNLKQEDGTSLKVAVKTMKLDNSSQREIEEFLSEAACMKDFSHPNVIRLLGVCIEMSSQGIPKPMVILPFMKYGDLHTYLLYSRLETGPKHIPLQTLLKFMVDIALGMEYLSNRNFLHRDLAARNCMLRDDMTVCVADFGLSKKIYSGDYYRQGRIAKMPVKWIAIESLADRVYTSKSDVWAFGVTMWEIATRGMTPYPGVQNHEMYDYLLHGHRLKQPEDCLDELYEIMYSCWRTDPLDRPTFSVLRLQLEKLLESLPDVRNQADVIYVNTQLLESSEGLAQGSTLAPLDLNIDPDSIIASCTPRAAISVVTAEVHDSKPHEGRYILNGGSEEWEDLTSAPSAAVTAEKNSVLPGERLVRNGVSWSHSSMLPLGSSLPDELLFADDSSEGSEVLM

human AXL (473-end) = target: T2, human AXL (473-end) (Homo sapiens, UniProt P30530); test: HTRF kinase activity biochemical assay, AXL; conditions: 10 μM ATP, 30 minutes pre-incubation
T2 construct: human AXL (473-end); purchased SignalChem, Canada
T2 sequence (P30530 473-894 limits assumed): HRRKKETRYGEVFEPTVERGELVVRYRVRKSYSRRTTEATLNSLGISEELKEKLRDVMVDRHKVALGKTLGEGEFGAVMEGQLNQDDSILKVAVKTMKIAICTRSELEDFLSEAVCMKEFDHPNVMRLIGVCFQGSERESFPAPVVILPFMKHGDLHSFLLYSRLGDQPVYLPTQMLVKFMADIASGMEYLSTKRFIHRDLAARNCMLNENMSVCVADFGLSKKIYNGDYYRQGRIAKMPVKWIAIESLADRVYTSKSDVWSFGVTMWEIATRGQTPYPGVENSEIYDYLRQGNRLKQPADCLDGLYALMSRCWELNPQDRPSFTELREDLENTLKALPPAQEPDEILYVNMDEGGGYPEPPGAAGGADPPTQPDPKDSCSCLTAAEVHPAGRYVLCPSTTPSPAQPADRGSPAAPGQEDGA

human TYRO3 (455-end) = target: T3, human TYRO3 (455-end) (Homo sapiens, UniProt Q06418); test: HTRF kinase activity biochemical assay, TYRO3; conditions: 10 μM ATP, 30 minutes pre-incubation; read-out: HTRF TYRO IC50
T3 construct: TYRO3 (455-end); purchased SignalChem, Canada
T3 sequence (Q06418 455-890 limits assumed): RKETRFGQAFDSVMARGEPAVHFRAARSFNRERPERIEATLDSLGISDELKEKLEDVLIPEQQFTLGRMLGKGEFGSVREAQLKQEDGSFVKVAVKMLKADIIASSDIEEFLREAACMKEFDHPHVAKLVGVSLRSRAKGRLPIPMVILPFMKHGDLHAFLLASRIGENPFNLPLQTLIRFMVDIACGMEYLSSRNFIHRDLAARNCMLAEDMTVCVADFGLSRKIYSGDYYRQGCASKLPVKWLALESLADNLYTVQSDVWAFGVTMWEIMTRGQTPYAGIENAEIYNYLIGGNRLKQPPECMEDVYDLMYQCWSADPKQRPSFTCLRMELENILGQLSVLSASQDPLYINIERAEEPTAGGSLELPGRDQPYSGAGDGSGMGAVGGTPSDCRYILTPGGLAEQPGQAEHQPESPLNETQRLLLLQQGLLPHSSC

With `Nc1ncc(-c2ccc(F)nc2)cc1C(=O)N[C@H]1CCC[C@@H]1OCc1ccc(-c2ccc3c(c2)CC(F)(F)C3N2CCN(CCO)CC2)cc1` (stereo partly drawn) [Example 86, 6-amino-N-{(1S,2S)-2-[(4-{2,2-difluoro-1-[4-(2-hydroxyethyl)piperazin-1-yl]-2,3-dihydro-1H-inden-5-yl}phenyl)methoxy]cyclopentyl}-6′-fluoro[3,3′-bipyridine]-5-carboxamide] the IC50 (human MER (528-end)) was < 10 nM, the IC50 (human AXL (473-end)) was < 10 nM and the IC50 (human TYRO3 (455-end)) was 100 to 1000 nM.
`Nc1ncc(C(F)(F)F)cc1C(=O)N[C@H]1CCC[C@@H]1OCc1ccc(-c2ccc3c(c2)CC[C@@H]3N2CCN(CCO)CC2)cc1` [Example 131, 2-amino-N-{(1S,2S)-2-[(4-{(1S)-1-[4-(2-hydroxyethyl)piperazin-1-yl]-2,3-dihydro-1H-inden-5-yl}phenyl)methoxy]cyclopentyl}-5-(trifluoromethyl)pyridine-3-carboxamide] was tested, and the IC50 (human MER (528-end)) was < 10 nM, the IC50 (human AXL (473-end)) was < 10 nM and the IC50 (human TYRO3 (455-end)) was 100 to 1000 nM.
For `Cn1cc(-c2cnc(N)c(C(=O)N[C@H]3CCC[C@@H]3OCc3ccc(-c4ccc5c(c4)CCC[C@H]5N4CCN(C[C@H](O)CO)CC4)cc3)c2)cn1` [Example 170, 2-amino-N-[(1S,2S)-2-({4-[(5R)-5-{4-[(2S)-2,3-dihydroxypropyl]piperazin-1-yl}-5,6,7,8-tetrahydronaphthalen-2-yl]phenyl}methoxy)cyclopentyl]-5-(1-methyl-1H-pyrazol-4-yl)pyridine-3-carboxamide], the IC50 (human MER (528-end)) was 10 to 100 nM, the IC50 (human AXL (473-end)) was 10 to 100 nM and the IC50 (human TYRO3 (455-end)) was > 1000 nM.
In the case of `CN(C)CCC(=O)N1Cc2ccc(-c3ccc(CO[C@H]4CCC[C@@H]4NC(=O)c4cc(-c5cnn(C)c5)cnc4N)cc3)cc2C1` [Example 1, 2-amino-N-{(1S,2S)-2-[(4-{2-[3-(dimethylamino)propanoyl]-2,3-dihydro-1H-isoindol-5-yl}phenyl)methoxy]cyclopentyl}-5-(1-methyl-1H-pyrazol-4-yl)pyridine-3-carboxamide], the IC50 (human MER (528-end)) is reported as 100 to 1000 nM, the IC50 (human AXL (473-end)) is reported as > 1000 nM and the IC50 (human TYRO3 (455-end)) is reported as > 1000 nM.
In the case of `Cn1cc(-c2cnc(N)c(C(=O)N[C@H]3CCC[C@@H]3OCc3ccc(-c4ccc5c(ccn5CCN)c4)cc3)c2)cn1` [Example 67, 2-amino-N-[(1S,2S)-2-({4-[1-(2-aminoethyl)-1H-indol-5-yl]phenyl}methoxy)cyclopentyl]-5-(1-methyl-1H-pyrazol-4-yl)pyridine-3-carboxamide], the IC50 (human MER (528-end)) is reported as < 10 nM, the IC50 (human AXL (473-end)) is reported as < 10 nM and the IC50 (human TYRO3 (455-end)) is reported as 100 to 1000 nM.
`Cn1cc(-c2cnc(N)c(C(=O)N[C@H]3CCC[C@@H]3OCc3ccc(-c4ccc5c(c4)CCC5N4CCN(CC(O)CO)CC4)cc3)c2)cn1` (stereo partly drawn) [Example 81, 2-amino-N-{(1S,2S)-2-[(4-{1-[4-(2,3-dihydroxypropyl)piperazin-1-yl]-2,3-dihydro-1H-inden-5-yl}phenyl)methoxy]cyclopentyl}-5-(1-methyl-1H-pyrazol-4-yl)pyridine-3-carboxamide] was tested, and the IC50 (human MER (528-end)) was < 10 nM, the IC50 (human AXL (473-end)) was < 10 nM and the IC50 (human TYRO3 (455-end)) was 10 to 100 nM.
In the case of `Cn1cc(-c2cnc(N)c(C(=O)N[C@H]3CCC[C@@H]3OCc3ccc(-c4ccc5c(ccn5CCO)c4)cc3)c2)cn1` [Example 57, 2-amino-N-[(1S,2S)-2-({4-[1-(2-hydroxyethyl)-1H-indol-5-yl]phenyl}methoxy)cyclopentyl]-5-(1-methyl-1H-pyrazol-4-yl)pyridine-3-carboxamide], the IC50 (human MER (528-end)) is reported as < 10 nM, the IC50 (human AXL (473-end)) is reported as 10 to 100 nM and the IC50 (human TYRO3 (455-end)) is reported as > 1000 nM.
In the case of `CC1(C)CN(C2CCN(CCO)CC2)c2ccc(-c3ccc(CO[C@H]4CCC[C@@H]4NC(=O)c4cc(-c5ccc(F)nc5)cnc4N)cc3)cc21` [Example 31, 6-amino-6′-fluoro-N-{(1S,2S)-2-[(4-{1-[1-(2-hydroxyethyl)piperidin-4-yl]-3,3-dimethyl-2,3-dihydro-1H-indol-5-yl}phenyl)methoxy]cyclopentyl}[3,3′-bipyridine]-5-carboxamide], the IC50 (human MER (528-end)) is reported as < 10 nM, the IC50 (human AXL (473-end)) is reported as < 10 nM and the IC50 (human TYRO3 (455-end)) is reported as 10 to 100 nM.
